Target: HadA (Mycobacterium tuberculosis, UniProt P9WFK1)
Format: binding

HadA, sequence (P9WFK1 whole entry): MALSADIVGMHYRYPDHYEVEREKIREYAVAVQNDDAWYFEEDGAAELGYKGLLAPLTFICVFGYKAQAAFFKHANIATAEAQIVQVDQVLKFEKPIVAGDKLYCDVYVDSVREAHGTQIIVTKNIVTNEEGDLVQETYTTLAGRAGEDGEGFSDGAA

Which “UV-vis, fluorescence and ESI mass spectrometry of re-purified HadA” value does the source give for CCN(CC)c1ccc2cc(-c3ccc(/C=N/NC(N)=S)s3)c(=O)oc2c1 [Coum-TAC, (E)-((5-(7-((N,N)-diethylamino)-2-oxo-2H-chromen-3-yl)thiophen-2-yl)methylene)hydrazine-1-carbothioamide] here?
The value was “EthA promotes the formation of a covalent adduct between Coum-TAC and HadA”.

— paper PMC8022203 (ACS infectious diseases, 2021)
